Reference: paper PMC12223310, “Mining the heparinome for cryptic antimicrobial peptides that selectively kill Gram-negative bacteria” (Molecular Systems Biology, 2025)
In brackets after ≈: the same amount, converted by molar mass. Square brackets hold non-standard residues; d marks the D form. Ends that are not written are not given here. Peptide text beside a SMILES is read from it.

Tests used:
Listeria monocytogenes = type: cell-based, Listeria monocytogenes ATCC 19112
Procedure: (§1) Antimicrobial activities were determined by the microtiter broth dilution method recommended by the National Committee of Laboratory Safety and Standards (NCLSS), adapted for AMPs (Wiegand et al, [2008]). Briefly, overnight bacterial cell cultures were brought to an exponential growth state (OD600 = 0.4) in MH broth and diluted to a final concentration of 5 × 10^5 CFU/mL. In all, 1:2 peptide serial dilutions were prepared in 96-well polypropylene plates (Greiner, Frickenhausen, Germany), in MH medium containing 0.2% (w/v) of bovine serum albumin (BSA) and 0.02% glacial acetic acid. […] The lowest concentration with no colonies was taken as MBC. The results are the average of three independent studies.

[1] = test system: Pseudomonas sp (Pseudomonas aeruginosa); type: cell-based, Pseudomonas aeruginosa ATCC 15915
Procedure: as §1

Escherichia coli = type: cell-based, Escherichia coli BW25113
Procedure: as §1

Staphylococcus aureus = type: cell-based, Staphylococcus aureus ATCC 12600
Procedure: as §1

[2] = type: in vitro ADME
Procedure: 500 µL of 1 mM peptide stock in MiliQ water were mixed with 500 µL of human serum (Sigma-Aldrich, St. Louis, MO, USA). The mixture was incubated at 37 °C with shaking, and at various time points aliquots were taken and proteolysis was stopped with cold acetonitrile (80% in MiliQ water). The samples were chilled at 4 °C for 10 min to precipitate serum proteins, and centrifuged at 13,000 rpm at 4 °C for 15 min. The supernatant was collected and analyzed by LC and LC-MS with a –60% linear gradient of solvent B (0.036%TFA in ACN) into A (0.045% TFA in H2O) over 15 min at 1 mL/min flow rate. Unaltered peptide was determined by peak integration, expressed as the percent of the amount at 0 min, and data were fitted to a one-phase exponential decay model using GraphPad Prism 8.01 to estimate half-life time (t1/2). The results are the average of three independent experiments.

horse erythrocytes = type: cell-based
Procedure: Peptide toxicity was tested on horse erythrocytes (Sandín et al, [2021]). Horse defibrinated blood was washed three times in phosphate buffer saline (PBS) pH 7.2 by centrifugation at 3× 3000 rpm for 10 min, to remove excess hemoglobin in the supernatant and then diluted tenfold in PBS. Next, 50 μL of erythrocytes were added to a 1.5 mL polypropylene tube and incubated with 50 μL of a 1:2 peptide serial dilution in PBS. An erythrocyte disruption (ED) control was prepared by adding 50 μL of 0.1% TritonX-100 in PBS instead of the peptides and an intact erythrocyte (IC) control by adding 50 μL of PBS alone. All samples and controls were incubated for 2 h at 37 °C. Samples were centrifuged at 3000 rpm for 3 min, and the supernatants were transferred to a polystyrene 96-well plate and inspected for ED by reading the absorbance at 540 nm in a Tecan Spark instrument (Tecan, Männedorf, Switzerland). The results are the average of three independent studies. The hemolysis percentage was calculated as: Hemolysis%=Sample−IC/ED−IC×100

Acinetobacter baumannii = type: cell-based, Acinetobacter baumannii ATCC 15308
Procedure: as §1

in vitro = type: cell-based; conditions: human, MRC-5 cells
Procedure: (§2) Toxicity in MRC-5 and HepG2 cells was tested by the MTT assay, as described (Bello-Madruga et al, [2023]). Cell lines were maintained in Eagle’s minimum essential medium (MEMα) supplemented with 10% fetal bovine serum (FBS). Cells were cultured in 75-cm^2 flasks and then transferred to polystyrene 96-well plates, at 3 × 10^4 cells per well, and incubated overnight for attachment to the well surface. Then culture media was removed and 1:2 peptide serial dilutions in MEMα were added to each well and later incubated for 4 h. After incubation, peptides were removed and 100 μL of 0.5 mg/mL MTT staining solution in MEMα supplemented with 10% FBS was added to cells and incubated for 1.5 h at 37 °C. Formazan crystals in living cells were detected after disruption with 200 μL dimethyl sulfoxide and then absorbance was measured at 570 nm in a Tecan Spark instrument (Tecan, Männedorf, Switzerland). The results are the average of three independent studies.

Cytotoxicity, MTT assay = type: cell-based; conditions: human, HepG2 cells, 4 h peptide incubation in MEMα, average of three studies, read-out: LC50 (HepG2 cells)
Procedure: as §2

P. aeruginosa 827632 = type: cell-based
Procedure: as §1

E. coli 1166795 = type: cell-based
Procedure: as §1

A. baumannii 3878 = type: cell-based
Procedure: as §1

P. aeruginosa 827651 = type: cell-based
Procedure: as §1

A. baumannii 3880 = type: cell-based
Procedure: as §1

E. coli CFT073 = type: cell-based
Procedure: as §1

Enterococcus faecium = type: cell-based, Enterococcus faecium ATCC 19434
Procedure: as §1

MRC-5 cells = assay: in vitro; type: cell-based
Procedure: as §2

In the case of `CC(C)C[C@@H](NC(=O)[C@@H](CC(N)=O)NC(=O)[C@H](N)Cc1c[nH]cn1)C(=O)N[C@H](Cc1ccccc1)C(=O)N[C@H](CCCNC(=N)N)C(=O)N[C@H](CCCCN)C(=O)N[C@H](CC(C)C)C(=O)N[C@@H](C(=O)N[C@H](Cc1c[nH]cn1)C(=O)N[C@H](CCCNC(=N)N)C(=O)N[C@H](CC(C)C)C(=O)N[C@H](Cc1ccccc1)C(=O)N[C@H](CCCNC(=N)N)C(=O)N[C@H](CCCNC(=N)N)C(=O)N[C@H](CC(N)=O)C(=O)N[C@H](Cc1ccccc1)C(=O)NCC(=O)N[C@H](Cc1ccc(O)cc1)C(=O)N[C@@H](C(=O)N[C@H](CC(C)C)C(=O)N[C@H](CCCNC(=N)N)C(=O)N[C@H](CO)C(=O)N[C@@H](C(N)=O)C(C)C)[C@H](C)O)[C@H](C)O` [dHBP-5] (H-[dH][dN][dL][dF][dR][dK][dL][dT][dH][dR][dL][dF][dR][dR][dN][dF]G[dY][dT][dL][dR][dS][dV]-NH2), the “MIC L. monocytogenes” value (Listeria monocytogenes) is reported as 0.4 µM (≈ 1.17 µg/mL), the “MIC Pseudomonas sp” value [1] is reported as 0.2 µM (≈ 0.586 µg/mL) and the “MIC E. coli” value (Escherichia coli) is reported as 0.1 µM (≈ 0.293 µg/mL). For the same molecule, the “MIC S. aureus” value (Staphylococcus aureus) was 0.8 µM (≈ 2.35 µg/mL), the “half-life in human serum” value [2] was “exceeding 6 hours” and the “Hemolysis (250 µM peptide)” value (horse erythrocytes) was 29 ± 1. The “MIC A. baumannii” value (Acinetobacter baumannii) was 0.2 µM (≈ 0.586 µg/mL) and the CC50 at 4 h (in vitro) was 30 ± 1 µM.
With HNLFRKLTHRLFRRNFGYTLRSV-NH2 [HBP-5] the “MBC L. monocytogenes” value (Listeria monocytogenes) was 3.1 µM, the “MIC L. monocytogenes” value (Listeria monocytogenes) was 1.6 µM and the MBC Pseudomonas sp [1] was 0.8 µM. The MIC Pseudomonas sp [1] was 0.8 µM, the MBC E. coli (Escherichia coli) was 0.4 µM and the MIC E. coli (Escherichia coli) was 0.4 µM. For the same molecule, the CC50 at 4 h (Cytotoxicity, MTT assay) was 80 µM, the “MBC P. aeruginosa 827632” value (P. aeruginosa 827632) was 1.6 µM and the “MIC P. aeruginosa 827632” value (P. aeruginosa 827632) was 1.6 µM. The “MBC E. coli 1166795” value (E. coli 1166795) was < 0.1 µM, the “MIC E. coli 1166795” value (E. coli 1166795) was < 0.1 µM and the “MBC A. baumannii 3878” value (A. baumannii 3878) was 0.2 µM. The “MIC A. baumannii 3878” value (A. baumannii 3878) was 0.2 µM, the “MBC P. aeruginosa 827651” value (P. aeruginosa 827651) was 1.6 µM and the “MIC P. aeruginosa 827651” value (P. aeruginosa 827651) was 0.8 µM. The “MBC A. baumannii 3880” value (A. baumannii 3880) was 0.4 µM, the “MIC A. baumannii 3880” value (A. baumannii 3880) was 0.4 µM and the “MBC E. coli CFT073” value (E. coli CFT073) was 0.8 µM. For the same molecule, the “MIC E. coli CFT073” value (E. coli CFT073) was 0.4 µM, the MBC S. aureus (Staphylococcus aureus) was 6.3 µM and the MIC S. aureus (Staphylococcus aureus) was 6.3 µM. For the same molecule, the “Hemolysis (250 µM peptide)” value (horse erythrocytes) was 23 ± 1, the MBC A. baumannii (Acinetobacter baumannii) was 0.2 µM and the MIC A. baumannii (Acinetobacter baumannii) was 0.2 µM. For the same molecule, the “MBC E. faecium” value (Enterococcus faecium) was 6.3 µM, the “MIC E. faecium” value (Enterococcus faecium) was 3.1 µM and the “LC50 (MRC-5 cells, µM)” value (MRC-5 cells) was 69 µM. The CC50 at 4 h (in vitro) was 69 ± 2 µM.
